Key:
KARPAS-422 [1] = assay: Growth inhibition of human KARPAS422 cells incubated for 7 days by WST8 assay; details: KARPAS-422, 168 h
Pfeiffer [2] = assay: Growth inhibition of human Pfeiffer cells incubated for 7 days by WST8 assay; assay type: functional, cell-based; details: 168 h
[3] = Plasma concentration in mouse at 25 mg/kg, po after 1 hr by LC-MS/MS analysis; assay type: ADME, organism-based
[4] = Plasma concentration in mouse at 25 mg/kg, po after 3 hrs by LC-MS/MS analysis; assay type: ADME, organism-based
[5] = Plasma concentration in mouse at 25 mg/kg, po after 6 hrs by LC-MS/MS analysis; assay type: ADME, organism-based
Polycomb protein EED = Polycomb protein EED (Homo sapiens, UniProt O75530)
Polycomb protein EED, sequence (O75530 whole entry): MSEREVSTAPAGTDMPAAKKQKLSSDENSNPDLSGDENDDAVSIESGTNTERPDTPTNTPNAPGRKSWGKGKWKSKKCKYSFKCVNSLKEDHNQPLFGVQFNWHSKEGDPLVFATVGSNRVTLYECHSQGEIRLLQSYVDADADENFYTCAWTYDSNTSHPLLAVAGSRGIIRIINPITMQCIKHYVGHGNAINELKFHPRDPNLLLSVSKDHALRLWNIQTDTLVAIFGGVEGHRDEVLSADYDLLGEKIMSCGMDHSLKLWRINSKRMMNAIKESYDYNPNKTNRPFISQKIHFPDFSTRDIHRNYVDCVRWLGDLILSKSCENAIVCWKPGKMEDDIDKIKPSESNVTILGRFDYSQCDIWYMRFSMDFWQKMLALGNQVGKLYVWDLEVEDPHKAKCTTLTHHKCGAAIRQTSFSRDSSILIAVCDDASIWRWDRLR

KARPAS-422 [6] = assay: Antitumor activity against human KARPAS422 cells xenografted in SCID mouse assessed as induction of tumor regression at 50 mg/kg, po dosed daily for 28 days relative to control; assay type: functional
KARPAS-422 [7] = assay: Antitumor activity against human KARPAS422 cells xenografted in SCID mouse assessed as induction of tumor regression at 100 mg/kg, po dosed daily for 28 days relative to control; assay type: functional
[8] = Toxicity in SCID mouse xenografted with human KARPAS422 cells assessed as induction of body weight loss at 50 to 100 mg/kg, po dosed daily for 28 days; assay type: organism-based, KARPAS-422; details: in vivo, 672 h
[9] = AUC (0 to t) in mouse at 2 mg/kg, iv by LC-MS/MS analysis; assay type: ADME, organism-based; details: in vivo
[10] = Terminal half life in mouse at 10 mg/kg, po by LC-MS/MS analysis; assay type: ADME, organism-based; details: in vivo, read-out: beta t1/2 (converted)
[11] = Cmax in mouse at 10 mg/kg, po by LC-MS/MS analysis; assay type: ADME, organism-based; parameters: dose 10 mg/kg, route oral; details: in vivo
[12] = AUC (0 to t) in mouse at 10 mg/kg, po by LC-MS/MS analysis; assay type: ADME, organism-based; details: in vivo
[13] = Plasma clearance in mouse at 2 mg/kg, iv by LC-MS/MS analysis; assay type: ADME, organism-based
[14] = Volume of distribution at steady state in mouse at 2 mg/kg, iv by LC-MS/MS analysis; assay type: ADME, organism-based; details: in vivo, read-out: Vdss
KARPAS-422 [15] = assay: Antitumor activity against human KARPAS422 cells xenografted in mouse assessed as inhibition of tumor growth at 100 mg/kg, po dosed twice daily for 36 days; assay type: functional; details: KARPAS-422, po, 864 h, read-out: TGI
Pfeiffer [16] = assay: Growth inhibition of human Pfeiffer cells incubated for 10 days by WST8 assay; assay type: functional, cell-based; details: 240 h

Cc1ncccc1-c1cnc(NCc2c(F)ccc3c2CCO3)n2cnc(S(C)(=O)=O)c12
IC50 (KARPAS-422 [1]): 3.6 nM | IC50 (Pfeiffer [2]): 0.08 nM | concentration at 1 h [3]: 488 ng/mL | concentration at 3 h [4]: 194 ng/mL | concentration at 6 h [5]: 91 ng/mL

Cc1nc(C(F)(F)F)ccc1-c1cnc(NCc2c(F)ccc3c2CCO3)n2cnc(S(C)(=O)=O)c12
IC50 (KARPAS-422 [1]): 1.7 nM | IC50 (Pfeiffer [2]): 0.05 nM | concentration at 1 h [3]: 896 ng/mL | concentration at 3 h [4]: 794 ng/mL | concentration at 6 h [5]: 415 ng/mL | IC50 (Polycomb protein EED): 0.4 nM

CCOC(=O)c1ncn2c(NCc3cccc4c3OCO4)ncc(-c3ccccc3)c12
IC50 (KARPAS-422 [1]): 300 nM | IC50 (Polycomb protein EED): 40 nM

CS(=O)(=O)c1ncn2c(NCc3c(F)ccc4c3CCO4)ncc(C3CCS(=O)(=O)CC3)c12
IC50 (KARPAS-422 [1]): 29 nM | IC50 (Polycomb protein EED): 7.8 nM

Cc1ccc(-c2cnc(NCc3c(F)ccc4c3CCO4)n3cnc(S(C)(=O)=O)c23)cn1
IC50 (KARPAS-422 [1]): 1.4 nM | IC50 (Pfeiffer [2]): 0.03 nM | concentration at 1 h [3]: 340 ng/mL | concentration at 3 h [4]: 94 ng/mL | concentration at 6 h [5]: 29 ng/mL

CCN1CCC(c2cnc(NCc3c(F)ccc4c3CCO4)n3cnc(S(C)(=O)=O)c23)CC1
IC50 (KARPAS-422 [1]): 126 nM | IC50 (Polycomb protein EED): 23 nM

Cn1cc(-c2cnc(NCc3c(F)ccc4c3CCO4)n3cnc(S(C)(=O)=O)c23)cn1
IC50 (KARPAS-422 [1]): 3.1 nM | IC50 (Pfeiffer [2]): 0.27 nM | concentration at 1 h [3]: 468 ng/mL | concentration at 3 h [4]: 50 ng/mL | concentration at 6 h [5]: 56 ng/mL | IC50 (Polycomb protein EED): 0.5 nM

CS(=O)(=O)c1ncn2c(NCc3c(F)ccc4c3CCO4)ncc(-c3ccccc3)c12
IC50 (KARPAS-422 [1]): 2.2 nM

CP(C)(=O)c1ncn2c(NCc3c(F)ccc4c3CCO4)ncc(-c3ccccc3)c12
IC50 (KARPAS-422 [1]): 8.1 nM

CS(=O)(=O)c1ncn2c(NCc3c(F)ccc4c3CCO4)ncc(C3CCOCC3)c12
IC50 (KARPAS-422 [1]): 52 nM | IC50 (Polycomb protein EED): 12 nM

CS(=O)(=O)c1ncn2c(NCc3c(F)ccc4c3CCO4)ncc(C3CCN(S(=O)(=O)C4CC4)CC3)c12
IC50 (KARPAS-422 [1]): 8.2 nM | IC50 (Polycomb protein EED): 3.1 nM

CCOC(=O)c1ncn2c(NCc3ccco3)ncc(-c3ccccc3)c12
IC50 (KARPAS-422 [1]): 1000 nM

CS(=O)(=O)c1ncn2c(NCc3c(F)ccc4c3CCO4)ncc(-c3ccc(C(F)F)nc3)c12
IC50 (KARPAS-422 [1]): 2.4 nM | IC50 (Pfeiffer [2]): 0.02 nM | concentration at 1 h [3]: 242 ng/mL | concentration at 3 h [4]: 18 ng/mL | concentration at 6 h [5]: < 10 ng/mL | IC50 (Polycomb protein EED): 0.2 nM

CCOC(=O)c1ncn2c(NCc3c(F)cccc3OC)ncc(-c3ccccc3)c12
IC50 (KARPAS-422 [1]): 300 nM | IC50 (Polycomb protein EED): 50 nM

Cc1cc(S(C)(=O)=O)ccc1-c1cnc(NCc2c(F)ccc3c2CCO3)n2cnc(S(C)(=O)=O)c12
IC50 (KARPAS-422 [1]): 1.6 nM | IC50 (Pfeiffer [2]): 0.02 nM | concentration at 1 h [3]: 591 ng/mL | concentration at 3 h [4]: 279 ng/mL | concentration at 6 h [5]: 98 ng/mL | IC50 (Polycomb protein EED): 0.9 nM

CS(=O)(=O)c1ccc(-c2cnc(NCc3c(F)ccc4c3CCO4)n3cnc(S(C)(=O)=O)c23)cn1
IC50 (KARPAS-422 [1]): 2.9 nM | IC50 (Pfeiffer [2]): 0.5 nM | concentration at 1 h [3]: 351 ng/mL | concentration at 3 h [4]: 36 ng/mL | concentration at 6 h [5]: 41 ng/mL

CCOC(=O)c1ncn2c(NCc3cc(OC)ccc3F)ncc(-c3ccccc3)c12
IC50 (KARPAS-422 [1]): 2700 nM

Cc1ccc(-c2cnc(NCc3c(F)ccc4c3CCO4)n3cnc(S(C)(=O)=O)c23)c(C)n1
concentration at 1 h [3]: 2480 ng/mL | concentration at 3 h [4]: 754 ng/mL | concentration at 6 h [5]: 485 ng/mL | Activity (KARPAS-422 [6]): 100% | Activity (KARPAS-422 [7]): 100% | Activity [8]: Non-Toxic | AUC(0-t) [9]: 800 ng·h/mL | half-life [10]: 2.1 h | Cmax [11]: 1300 ng/mL | AUC(0-t) [12]: 2600 ng·h/mL | clearance [13]: 40 mL/min/kg | Vd [14]: 1.6 L/kg | IC50 (Polycomb protein EED): 0.5 nM

Fc1ccc2c(c1CNc1ncc(-c3ccccc3)c3c(C(F)(F)F)ncn13)CCO2
IC50 (KARPAS-422 [1]): 120 nM

CNC(=O)c1ncn2c(NCc3c(F)ccc4c3CCO4)ncc(-c3ccccc3)c12
IC50 (KARPAS-422 [1]): 60 nM

CS(=O)(=O)c1ncn2c(NCc3c(F)ccc4c3CCO4)ncc(-c3ccc(F)cc3)c12
IC50 (KARPAS-422 [1]): 5.2 nM | IC50 (Pfeiffer [2]): 0.12 nM | concentration at 1 h [3]: 43 ng/mL | concentration at 3 h [4]: < 10 ng/mL | concentration at 6 h [5]: < 10 ng/mL | IC50 (Polycomb protein EED): 0.4 nM

CCOC(=O)c1ncn2c(NCc3ccc(OC)cc3F)ncc(-c3ccccc3)c12
IC50 (KARPAS-422 [1]): 4300 nM

CS(=O)(=O)c1ccc(-c2cnc(NCc3ccco3)n3cnnc23)cc1
IC50 (KARPAS-422 [1]): 180 nM | inhibition in vivo at 100 mg/kg (KARPAS-422 [15]): 85% | IC50 (Polycomb protein EED): 17.6 nM

CN(C)[C@H]1CN(C2CCc3cccc(F)c32)C[C@@H]1c1ccc(N2CCN(S(C)(=O)=O)CC2)cc1 (some centres undefined)
IC50 (Pfeiffer [16]): 69 nM

CCOC(=O)c1ncn2c(NCc3cccc4c3OCC4)ncc(-c3ccccc3)c12
IC50 (KARPAS-422 [1]): 6300 nM

CCOC(=O)c1ncn2c(NCc3ccccc3)ncc(-c3ccccc3)c12
IC50 (KARPAS-422 [1]): 3000 nM

CC(=O)N1CCC(c2cnc(NCc3c(F)ccc4c3CCO4)n3cnc(S(C)(=O)=O)c23)CC1
IC50 (KARPAS-422 [1]): 6.5 nM | IC50 (Polycomb protein EED): 2.8 nM

CS(=O)(=O)c1ncn2c(NCc3c(F)ccc4c3CCO4)ncc(-c3ccc(C(F)(F)F)nc3)c12
IC50 (KARPAS-422 [1]): 1.7 nM | IC50 (Pfeiffer [2]): 0.03 nM | concentration at 1 h [3]: 468 ng/mL | concentration at 3 h [4]: 189 ng/mL | concentration at 6 h [5]: 139 ng/mL | IC50 (Polycomb protein EED): 0.3 nM

CS(=O)(=O)c1ncn2c(NCc3c(F)ccc4c3CCO4)ncc(C3CCN(S(C)(=O)=O)CC3)c12
IC50 (KARPAS-422 [1]): 15.3 nM | IC50 (Polycomb protein EED): 7.9 nM

CCOC(=O)c1ncn2c(NCc3cccc4c3CCO4)ncc(-c3ccccc3)c12
IC50 (KARPAS-422 [1]): 210 nM

CS(=O)(=O)c1ccc(-c2cnc(NCc3c(F)ccc4c3CCO4)n3cnc(S(C)(=O)=O)c23)cc1
IC50 (KARPAS-422 [1]): 1.4 nM | IC50 (Pfeiffer [2]): 0.02 nM | concentration at 1 h [3]: 598 ng/mL | concentration at 3 h [4]: 171 ng/mL | concentration at 6 h [5]: 109 ng/mL

CNC(=O)c1ncn2c(NCc3ccco3)ncc(-c3ccccc3)c12
IC50 (KARPAS-422 [1]): 2400 nM

CS(=O)(=O)c1ncn2c(NCc3c(F)ccc4c3CCO4)ncc(-c3ccc(C4CC4)nc3)c12
IC50 (KARPAS-422 [1]): 0.5 nM | IC50 (Pfeiffer [2]): 0.02 nM | concentration at 1 h [3]: 1100 ng/mL | concentration at 3 h [4]: 608 ng/mL | concentration at 6 h [5]: 452 ng/mL | Activity (KARPAS-422 [6]): 100% | Activity (KARPAS-422 [7]): 100% | Activity [8]: Non-Toxic | AUC(0-t) [9]: 1700 ng·h/mL | Cmax [11]: 1800 ng/mL | AUC(0-t) [12]: 6000 ng·h/mL | clearance [13]: 20 mL/min/kg | Vd [14]: 1.4 L/kg | IC50 (Polycomb protein EED): 0.2 nM
